# From patent US9045505B2, “Nitric oxide donors” (University of Otago, priority 2006, dated 2015)
# How the values were obtained:
# C2C12 cells = experiment: S-nitrosation of cellular protein thiols in C2C12 cells; type: cell-based, mouse; conditions: 5 μM
# Procedure: FIG. 11 is a series of graphs showing S-nitrosation of mitochondrial thiols by MitoSNAP. (a) Time course of S-nitrosation of mitochondrial proteins by MitoSNAP. Liver mitochondria (1 mg protein) were incubated in 1 ml KCl buffer supplemented with rotenone and succinate in the presence of 5 μM MitoSNAP. At various times mitochondria were treated with 10 mM N-ethylmaleimide (NEM), isolated by centrifugation and the S-nitrosothiol content assessed. Data are of a typical experiment showing means±range of duplicate samples for each time point, each measured in duplicate. The experiment was repeated twice. (b) S-nitrosation of mitochondrial proteins by different concentrations of MitoSNAP and SNAP. Aliquots of liver mitochondria were incubated with the indicated concentrations of MitoSNAP or SNAP for […] in the presence or absence of 500 nM FCCP and then assessed for S-nitrosothiol content as in (a). For the +NEM sample, 10 mM NEM was added to the mitochondria and 1 min later 5 μM MitoSNAP was added and incubated for a further 2.5 min. Data are of a typical experiment showing means±range of duplicate samples for each time point, each measured in duplicate. The experiment was repeated twice. (c) S-nitrosation of cellular protein thiols by MitoSNAP. […] After further incubation for 5 min at 37° C. in the dark, the medium was removed and the content of S-nitrosated proteins was measured. […] After 5 min at 37° C. in the dark, the medium was removed and the cells were processed to isolate a mitochondria-enriched fraction and S-nitrosated protein was then determined Data are mean±sem of triplicate determinations (+MitoSNO1), or mean±range of duplicate determinations (+FCCP). […] S-nitrosated thiols were then selectively tagged with Cy3 maleimide and protein (10 μg) was then separated on a 12.5% SDS PAGE gel which was stained with coomassie blue and scanned for Cy3 fluorescence. The Cy3 fluorescence (SNO) and coomassie staining (coomassie) of each gel is shown. […]
# mice = experiment: Cardiac ischemia-reperfusion injury in vivo (LAD occlusion); parameters: species or system mouse; conditions: 100 ng/kg into left ventricle 5 min prior to reperfusion, 30 min LAD occlusion, 24 h recovery
# Procedure: Male C57BL/6 mice (˜25 g) were purchased from the Jackson Laboratory and handled in accordance with the procedures of the University of Rochester Committee on Animal Research. All surgical procedures were sterile and performed as described previously. Briefly, analgesics (acetaminophen 0.75 mg/ml in drinking water) were administered 24 hr before, and during the perioperative period.
# Following anesthesia (Avertin, 2,2,2-tribromoethanol, […] IP) mice were intubated with a 20 gauge PE catheter which was connected to a rodent ventilator (Harvard MiniVent, 120 cycles/min., 0.3 ml tidal volume). A thoracotomy was performed and the left anterior descending coronary artery (LAD) was then ligated and occluded with a 9-0 proline suture for 30 min. MitoSNAP or MitoNAP (100 ng/kg) were dissolved in 0.9% NaCl saline (final volume 50 μl) and then administered 5 min prior to reperfusion into left ventricle (LV) using 30G½ needle. Reperfusion was initiated by removing the suture. The chest and skin were sutured closed, the endotracheal tube removed and the animal returned to its cage to recover. After 24 hrs. the animal was re-anesthetized, the LAD re-ligated, and Evans' blue dye (1.0% w/v, 1.5 ml) perfused via the LV. […] Slices were scanned and infarct/AR ratios determined with NIH ImageJ software.
structure (smiles),measurement,setting,value
"CC(=O)NC(C(=O)NCCCCC[P+](c1ccccc1)(c1ccccc1)c1ccccc1)C(C)(C)SN=O.CS(=O)(=O)[O-] (stereo not shown) [MitoSNAP, [5-(2-acetylamino-3-methyl-3-nitrosothio-butyrylamino)-penty1]-triphenylphosphonium methanesulfonate]",time of maximum S-nitrosation of cell proteins,C2C12 cells,5 to 10 min
same,S-nitrosation of proteins of a mitochondria-enriched cell fraction,C2C12 cells; 5 min,extensively S-nitrosated
same,extent of cell protein S-nitrosation,C2C12 cells; 5 min,considerably greater than that by SNAP
same,protection against heart damage (infarct/area at risk),mice,Protects Against Cardiac Ischemia-Reperfusion Injury
